Assay results: patent EP0183174A2, “Substituted phenoxy urea, processes for its preparation and herbicide containing it as active ingredient” (KUMIAI CHEMICAL INDUSTRY CO., LTD., priority 1984, dated 1986)

Experiments:
[1] = system: smallflower flatsedge; assay: Test Example 1: herbicidal test by water treatment in a paddy field; type: in vivo, Cvperus diffcrmis L.; design: key: 5: Withered; 4.5: Herbicidal effect (or phytotoxicity) in a range of 90 to 99%; 4: Herbicidal effect (or phytotoxicity) in a range of 80 to 89%; 3.5: Herbicidal effect (or phytotoxicity) in a range of 70 to 79%; 3: Herbicidal effect (or phytotoxicity) in a range of 60 to 69%; 2.5: Herbicidal effect (or phytotoxicity) in a range of 50 to 59%; 2: Herbicidal effect (or phytotoxicity) in a range of 40 to 49%; 1.5: Herbicidal effect (or phytotoxicity) in a range of 30 to 39%; 1: Herbicidal effect (or phytotoxicity) in a range of 20 to 29%; 0.5: Herbicidal effect (or phytotoxicity) in a range of 1 to 19%; 0: No herbicidal effect (or no phytotoxicity); conditions: evaluated thirty days after application
Procedure: (§1) Into each porcelain pot having a diameter of 10 cm, paddy soil was filled and puddled, and seeds of barnyardgrass (Echinochloa crus-galli L.), smallflower flatsedge, monochoria and Japanese bulrush were sown, and water was filled in a-depth of 3 cm. One day later, a predetermined amount of the wettable powder prepared in Formulation Example 3 and diluted with water was dropwise applied to the surface of the water (dose of the active ingredient: 4 kg/hectare). Thereafter, they were grown in a green house. Thirty days after the application, the herbicidal effects were evaluated in accordance with the standards as identified in Table 5.

[2] = system: Japanese bulrush; assay: as above; type: in vivo, Scir^pus juncoides Roxb.; design: key: 5: Withered; 4.5: Herbicidal effect (or phytotoxicity) in a range of 90 to 99%; 4: Herbicidal effect (or phytotoxicity) in a range of 80 to 89%; 3.5: Herbicidal effect (or phytotoxicity) in a range of 70 to 79%; 3: Herbicidal effect (or phytotoxicity) in a range of 60 to 69%; 2.5: Herbicidal effect (or phytotoxicity) in a range of 50 to 59%; 2: Herbicidal effect (or phytotoxicity) in a range of 40 to 49%; 1.5: Herbicidal effect (or phytotoxicity) in a range of 30 to 39%; 1: Herbicidal effect (or phytotoxicity) in a range of 20 to 29%; 0.5: Herbicidal effect (or phytotoxicity) in a range of 1 to 19%; 0: No herbicidal effect (or no phytotoxicity); conditions: evaluated thirty days after application
Procedure: as §1

[3] = system: barnyardgrass (Echinochloa crus-galli L.); assay: as above; type: in vivo; design: key: 5: Withered; 4.5: Herbicidal effect (or phytotoxicity) in a range of 90 to 99%; 4: Herbicidal effect (or phytotoxicity) in a range of 80 to 89%; 3.5: Herbicidal effect (or phytotoxicity) in a range of 70 to 79%; 3: Herbicidal effect (or phytotoxicity) in a range of 60 to 69%; 2.5: Herbicidal effect (or phytotoxicity) in a range of 50 to 59%; 2: Herbicidal effect (or phytotoxicity) in a range of 40 to 49%; 1.5: Herbicidal effect (or phytotoxicity) in a range of 30 to 39%; 1: Herbicidal effect (or phytotoxicity) in a range of 20 to 29%; 0.5: Herbicidal effect (or phytotoxicity) in a range of 1 to 19%; 0: No herbicidal effect (or no phytotoxicity); conditions: evaluated thirty days after application
Procedure: as §1

[4] = system: monochoria; assay: as above; type: in vivo, Monochoria vaginalis Presl; design: key: 5: Withered; 4.5: Herbicidal effect (or phytotoxicity) in a range of 90 to 99%; 4: Herbicidal effect (or phytotoxicity) in a range of 80 to 89%; 3.5: Herbicidal effect (or phytotoxicity) in a range of 70 to 79%; 3: Herbicidal effect (or phytotoxicity) in a range of 60 to 69%; 2.5: Herbicidal effect (or phytotoxicity) in a range of 50 to 59%; 2: Herbicidal effect (or phytotoxicity) in a range of 40 to 49%; 1.5: Herbicidal effect (or phytotoxicity) in a range of 30 to 39%; 1: Herbicidal effect (or phytotoxicity) in a range of 20 to 29%; 0.5: Herbicidal effect (or phytotoxicity) in a range of 1 to 19%; 0: No herbicidal effect (or no phytotoxicity); conditions: evaluated thirty days after application
Procedure: as §1

[5] = system: Paddy rice; assay: Test Example 2: herbicidal test for selectivity between rice and barnyardgrass (phytotoxicity); type: in vivo; conditions: thirty days after application
Procedure: (§2) Into each 1/5000 are Wager pot, paddy soil was filled and puddled, then seeds of barnyardgrass were sown and grown until they reached 2-leaf stage. The barnyardgrass of 2-leaf stage was thinned out to adjust the number of barnyardgrass to fifteen per pot, and rice seedlings of 2-leaf stage were transplanted in the same pot. […] Thereafter, they were grown in a green house, and thirty days after the application, the herbicidal effects and phytotoxicity were evaluated in accordance with the standards as identified in Table 5.

[6] = system: barnyardgrass; assay: Test Example 2: herbicidal test for selectivity between rice and barnyardgrass (herbicidal effects); type: in vivo, Echinochloa crus-galli L.; conditions: barnyardgrass of 2-leaf stage, thirty days after application
Procedure: as §2

[7] = Herbicidal activity of the prior-art compound, used in the same manner as the compound of the invention (general statement); type: in vivo; conditions: used in the same manner as the compound of the present invention
[8] = water treatment in paddy field pot, dose of active ingredient 4 kg/hectare
[9] = dose of the active ingredient 4 kg/hectare, wettable powder applied to water surface one day after sowing

3-(2,5-Dichlorophenoxy)-1,1-dimethyl urea trichloroacetate [Compound No. 185]
Herbicidal effects Small flower flatsedge [1, 8]: 5 | Herbicidal effects Japanese bulrush [2, 8]: 5 | Herbicidal effects Barnyard grass [3, 8]: 5 | Herbicidal effects Monochoria [4, 8]: 5

3-(3,5-Dichlorophenoxy)-1,1-dimethyl urea trichloroacetate [Compound No. 184]
Herbicidal effects Small flower flatsedge [1, 8]: 5 | Herbicidal effects Japanese bulrush [2, 8]: 5 | Herbicidal effects Barnyard grass [3, 8]: 5 | Herbicidal effects Monochoria [4, 8]: 5

NC(=O)NOc1cccc(Cl)c1 [Comparative Compound]
Herbicidal effects Small flower flatsedge [1, 8]: 0 | Herbicidal effects Japanese bulrush [2, 8]: 0 | Herbicidal effects Barnyard grass [3, 8]: 0 | Herbicidal effects Monochoria [4, 8]: 0

C=CCNC(=O)NOc1cc(Cl)ccc1Cl [Compound No. 2, 1-Allyl-3-(2,5-dichlorophenoxy) urea]
Herbicidal effects Small flower flatsedge [1, 9]: 5 | Herbicidal effects Japanese bulrush [2, 9]: 5 | Herbicidal effects Barnyard grass [3, 9]: 5 | Phytotoxicity Paddy rice ([5]; Dose 0.5 kg/Ha, transplanted rice seedlings of 2-leaf stage): 0 | Phytotoxicity Paddy rice ([5]; Dose 1 kg/Ha, transplanted rice seedlings of 2-leaf stage): 1 (Herbicidal effect (or phytotoxicity) in a range of 20 to 29%) | Herbicidal effects Barnyard grass ([6]; Dose 0.5 kg/Ha): 5 | Herbicidal effects Barnyard grass ([6]; Dose 1 kg/Ha): 5 | Herbicidal effects Monochoria [4, 9]: 5

O=C(NOc1cccc(Cl)c1Cl)NC1CCCCC1 [Compound No. 3, 1-Cyclohexyl-3-(2,3-dichlorophenoxy) urea]
Herbicidal effects Small flower flatsedge [1, 9]: 5 | Herbicidal effects Japanese bulrush [2, 9]: 5 | Herbicidal effects Barnyard grass [3, 9]: 5 | Herbicidal effects Monochoria [4, 9]: 5

CN(C)C(=O)Nc1ccc(Cl)c(Cl)c1 [DCMU, reference compound]
Phytotoxicity Paddy rice ([5]; Dose 0.25 kg/Ha, rice seedlings of 2-leaf stage transplanted, water surface application): 2 (Herbicidal effect (or phytotoxicity) in a range of 40 to 49%) | Phytotoxicity Paddy rice ([5]; Dose 0.5 kg/Ha, rice seedlings of 2-leaf stage transplanted, water surface application): 4 (Herbicidal effect (or phytotoxicity) in a range of 80 to 89%) | Phytotoxicity Paddy rice ([5]; Dose 1 kg/Ha, rice seedlings of 2-leaf stage transplanted, water surface application): 5 | Herbicidal effects Barnyard grass ([6]; Dose 0.25 kg/Ha, water surface application): 3 (Herbicidal effect (or phytotoxicity) in a range of 60 to 69%) | Herbicidal effects Barnyard grass ([6]; Dose 0.5 kg/Ha, water surface application): 5 | Herbicidal effects Barnyard grass ([6]; Dose 1 kg/Ha, water surface application): 5

NC(=O)NOc1cccc(Cl)c1 [m-chlorophenoxy urea]
herbicidal activites [7]: does not show any herbicidal activites
